± gives the standard deviation of the averaged measurements.
Test system: HepaRG
Assay: LDH release cytotoxicity, % of total lysis control; higher = more cytotoxic
Settings: 48 h
How it was run: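 Single-lot HepaRG cells in collagen I-coated 96-well plates were treated for 48 h in serum-free induction medium containing 0.5% DMSO with test chemicals in eight-point half-log series up to 100 µM. For total lysis, wells received 0.1% Triton X. LDH in 50 µL spent medium was assayed by resorufin fluorescence with CytoTox-ONE. Percent cytotoxicity was normalized to the on-plate vehicle and total lysis controls, with duplicates averaged.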

SMILES	LDH release cytotoxicity (0.03162 µM) [%]	LDH release cytotoxicity (0.1 µM) [%]	LDH release cytotoxicity (0.3162278 µM) [%]	LDH release cytotoxicity (1 µM) [%]	LDH release cytotoxicity (3.16228 µM) [%]	LDH release cytotoxicity (10 µM) [%]	LDH release cytotoxicity (31.6228 µM) [%]	LDH release cytotoxicity (100 µM) [%]	also measured
Cn1c(=O)cc(Oc2ccc(F)cc2F)c2cnc(NCC(C)(C)O)nc21	-1.61 ± 0.48	-1.64 ± 0.72	-0.855 ± 0.66	-0.86 ± 0.062	-1.12 ± 0.3	-1.19 ± 0.22	-0.929 ± 0.018	-1.1 ± 0.89	
c1ccc(-c2ccccc2)cc1 [Biphenyl]	-3.64 ± 0.49	-2.69 ± 0.98	-2.88 ± 0.12	-2.22 ± 0.45	-2.07 ± 0.53	-1.35 ± 0.15	-1.49 ± 0.43	0.572 ± 0.68	
CC(C)CCCCCCc1ccc(O)cc1 [4-Nonylphenol, branched]	-2.12 ± 0.23	-1.46 ± 0.5	-1.72 ± 0.52	-1.24 ± 0.36	-1.58 ± 0.073	-1.23 ± 0.036	-0.532 ± 0.65	-0.17 ± 1	
N#Cc1ccc(N(CC(N)=O)CC(F)(F)F)cc1C(F)(F)F	-0.784 ± 0.86	-0.777 ± 1.4	-1.03 ± 1.4	-1.38 ± 0.065	-0.891 ± 1.1	0.346 ± 0.016	-0.599 ± 0.47	-0.34 ± 0.95	
CCOCN(C(=O)CCl)c1c(C)cccc1CC [Acetochlor]	-0.907 ± 0.26	-1.94 ± 0.45	-0.877 ± 0.019	-0.999 ± 0.47	-1.55 ± 0.19	-0.606 ± 0.56	0.268 ± 0.58	56.1 ± 2.4	
CC1(C)CON(Cc2ccccc2Cl)C1=O [Clomazone]	-5.32 ± 1.1	-6.75 ± 0.27	-6.22 ± 0.37	-6.24 ± 0.67	-6.33 ± 1.5	-5.74 ± 0.57	-5.91 ± 0.59	-4.53 ± 0.15	
CCOCCOC(C)=O [Ethylene glycol monoethyl ether acetate]	-1.19 ± 0.03	-0.486 ± 0.16	0.156 ± 1.3	0.488 ± 0.7	0.0494 ± 0.028	0.917 ± 0.22	0.221 ± 0.35	1.51 ± 0.72	
CC(C)CC(C)(O)C#CC(C)(O)CC(C)C (configuration not stated) [2,4,7,9-Tetramethyl-5-decyne-4,7-diol]	-0.689 ± 0.26	-0.678 ± 0.45	-0.883 ± 0.019	-1.4 ± 0.25	-0.76 ± 0.5	-0.333 ± 0.27	0.979 ± 0.2	2.91 ± 0.27	
S=C(S)NCCNC(=S)S [Maneb]		-3.72 ± 0.66		-4.15 ± 0.23	25.2 ± 5.5	75.5 ± 4.6	77.2 ± 2.5	77.7 ± 3	LDH release cytotoxicity (0.031623 µM): -0.532 ± 1.1%; LDH release cytotoxicity (0.316228 µM): -2.09 ± 1.5%
CCCC(CCC)C(=O)O [Valproic acid]		-2.27 ± 0.28		-2.73 ± 0.65	-1.85 ± 0.16	-2.14 ± 2	-1.38 ± 0.12	-0.176 ± 0.59	LDH release cytotoxicity (0.031623 µM): -0.788 ± 0.37%; LDH release cytotoxicity (0.316228 µM): -1.27 ± 1.4%
CC(C)(C)C(O)C(=Cc1ccc(Cl)cc1Cl)n1cncn1 (configuration not stated) [Diniconazole]	-0.57 ± 1.1	-1.77 ± 1.1	-0.96 ± 0.019	-0.38 ± 0.69	0.433 ± 0.38	-0.346 ± 1.4	0.723 ± 1.1	1.41 ± 0.97	
CC(C)C1(C)N=C(c2nc3ccccc3cc2C(=O)O)NC1=O (configuration not stated) [Imazaquin]	-3.4 ± 0.27	-3.18 ± 1.6	-1.28 ± 0.9	-2.88 ± 1.6	-0.995 ± 1	-0.807 ± 1.1	-0.68 ± 1	2.17 ± 0.069	
CCCCCCC(C=O)=Cc1ccccc1 [2-(Phenylmethylene)octanal]	-1.15 ± 0.14	-2.83 ± 0.43	-1.02 ± 0.77	-1.91 ± 0.42	-1.53 ± 0.26	-0.899 ± 0.63	-0.688 ± 1.8	-0.668 ± 0.88	
O=C1CCCCC1 [Cyclohexanone]	-0.709 ± 0.56	-1.76 ± 0.34	-1.81 ± 0.036	-1.07 ± 0.29	-1.46 ± 0.24	-1.17 ± 0.039	-0.292 ± 0.4	0.737 ± 0.51	
CCOC(=O)c1ccccc1C(=O)OCC [Diethyl phthalate]	-0.196 ± 0.57	-0.436 ± 0.76	-0.318 ± 0.092	-1.12 ± 0.43	-0.475 ± 0.13	-1.03 ± 0.2	-0.196 ± 0.45	5.77 ± 0.6	
C1N2CN3CN1CN(C2)C3 [Methenamine]									LDH release cytotoxicity (0.0322552 µM): -1.06 ± 0.69%; LDH release cytotoxicity (0.102 µM): -1.56 ± 0.28%; LDH release cytotoxicity (0.322552 µM): -1.99 ± 0.53%; LDH release cytotoxicity (1.02 µM): -2.63 ± 0.35%; LDH release cytotoxicity (3.2255232 µM): -1.7 ± 0.047%; LDH release cytotoxicity (10.2 µM): -1.59 ± 0.085%; LDH release cytotoxicity (32.2552 µM): -1.01 ± 0.47%; LDH release cytotoxicity (102 µM): 0.286 ± 0.11%
C=C(C)C(N)=O [Methacrylamide]	0.244 ± 0.55	-1.11 ± 0.47	-1.39 ± 0.69	-1.09 ± 0.82	-1.32 ± 1.9	-0.285 ± 1.1	-0.444 ± 0.94	2.64 ± 0.98	
CCC(=NOCC=CCl)C1C(=O)CC(C2CCOCC2)CC1=O (configuration not stated) [Tepraloxydim]	-1.86 ± 0.12	-1.65 ± 0.29	-1.97 ± 0.062	-1.72 ± 0.081	-1.7 ± 0.22	-1.32 ± 0.12	-0.75 ± 0.13	-0.617 ± 0.06	
COc1cccc(C(=O)NN(C(=O)c2cc(C)cc(C)c2)C(C)(C)C)c1C [Methoxyfenozide]	-1.25 ± 0.79	-1.31 ± 0.37	-0.377 ± 0.4	-1.71 ± 0.41	-1.43 ± 0.52	-0.152 ± 0.72	0.244 ± 0.32	3.13 ± 0.26	
Cc1ccc(-c2cc(C(F)(F)F)nn2-c2ccc(S(N)(=O)=O)cc2)cc1 [Celecoxib]	-1.06 ± 0.3	-0.435 ± 0.23	-0.88 ± 0.78	-1.96 ± 0.9	-1.21 ± 1	-0.583 ± 0.15	3.13 ± 1.4	89.34 ± 0.16	
OC12N=C(c3ccccc3)SC1Cc1cc(Cl)ccc12 (configuration not stated) [HMR1426]	0.113 ± 0.048	-0.325 ± 2	2.01 ± 0.36	1.42 ± 1.4	3.44 ± 0.72	4.43 ± 0.51	3.89 ± 0.3	8.06 ± 0.31	
CCOc1ccc2c(c1)C(C)=CC(C)(C)N2 [Ethoxyquin]	-1.26 ± 0.72	-0.577 ± 0.97	-1.06 ± 0.6	-1.45 ± 1.1	-1.65 ± 0.13	-1.77 ± 0.58	-1.67 ± 0.43	-0.112 ± 2.2	
CCCOC(=O)c1ccc(O)cc1 [Propylparaben]	-0.197 ± 0.47	-0.55 ± 1.1	-0.664 ± 0.59	-0.711 ± 0.26	-0.982 ± 0.64	-0.514 ± 0.63	-0.541 ± 0.47	0.018 ± 1.1	
NNC(=O)c1ccncc1 [Isoniazid]									LDH release cytotoxicity (0.013914 µM): -1.4 ± 0.98%; LDH release cytotoxicity (0.044 µM): -0.0891 ± 1.3%; LDH release cytotoxicity (0.13914 µM): -1.34 ± 0.49%; LDH release cytotoxicity (0.44 µM): -1.05 ± 1.1%; LDH release cytotoxicity (1.3914 µM): -1.62 ± 0.34%; LDH release cytotoxicity (4.4 µM): -0.682 ± 2%; LDH release cytotoxicity (13.914 µM): -0.843 ± 0.11%; LDH release cytotoxicity (44 µM): -0.0914 ± 0.33%
CC1(C)C(C=C(Cl)Cl)C1C(=O)OC(C#N)c1cccc(Oc2ccccc2)c1 (configuration not stated) [Cypermethrin]	-0.819 ± 0.38	-1.77 ± 0.13	-1.92 ± 0.05	-2.15 ± 0.89	-1.45 ± 0.7	-1.44 ± 0.55	-0.803 ± 0.26	-0.801 ± 0.4	
CCCCCCCCn1sccc1=O [Octhilinone]									LDH release cytotoxicity (0.0328877 µM): -1.41 ± 0.74%; LDH release cytotoxicity (0.104 µM): -1.11 ± 0.18%; LDH release cytotoxicity (0.328877 µM): -1.8 ± 0.29%; LDH release cytotoxicity (1.04 µM): -2.06 ± 0.24%; LDH release cytotoxicity (3.28877 µM): -1.28 ± 0.083%; LDH release cytotoxicity (10.4 µM): -1.43 ± 0.041%; LDH release cytotoxicity (32.8877 µM): -0.0918 ± 0.75%; LDH release cytotoxicity (104 µM): 41.4 ± 8.2%
Cc1ccc(C)c(O)c1 [2,5-Dimethylphenol]	-1.02 ± 1	-1.37 ± 0.38	-1.74 ± 0.34	-1.34 ± 0.19	-1.4 ± 0.44	-0.854 ± 0.043	-0.822 ± 0.1	0.0909 ± 0.18	
CC#Cc1cc(C)nc(Nc2ccccc2)n1 [Mepanipyrim]	-1.35 ± 0.26	-1.3 ± 0.77	-1.45 ± 0.36	-1.69 ± 0.92	-0.377 ± 0.77	0.835 ± 1.1	2.41 ± 0.37	11.4 ± 0.23	
Cc1ccc(C)c(C)c1 [1,2,4-Trimethylbenzene]	-1.1 ± 0.13	-1.09 ± 0.14	-1.49 ± 0.63	-1.38 ± 0.46	-0.646 ± 0.4	-0.854 ± 0.4	0.161 ± 0.23	1.55 ± 0.46	

Reference: the supplement of paper PMC7840683
